The target in experiment [1] is T1, Solute carrier organic anion transporter family member (Danio rerio, UniProt A0A8M9PU70).
T1 sequence (A0A8M9PU70 whole entry): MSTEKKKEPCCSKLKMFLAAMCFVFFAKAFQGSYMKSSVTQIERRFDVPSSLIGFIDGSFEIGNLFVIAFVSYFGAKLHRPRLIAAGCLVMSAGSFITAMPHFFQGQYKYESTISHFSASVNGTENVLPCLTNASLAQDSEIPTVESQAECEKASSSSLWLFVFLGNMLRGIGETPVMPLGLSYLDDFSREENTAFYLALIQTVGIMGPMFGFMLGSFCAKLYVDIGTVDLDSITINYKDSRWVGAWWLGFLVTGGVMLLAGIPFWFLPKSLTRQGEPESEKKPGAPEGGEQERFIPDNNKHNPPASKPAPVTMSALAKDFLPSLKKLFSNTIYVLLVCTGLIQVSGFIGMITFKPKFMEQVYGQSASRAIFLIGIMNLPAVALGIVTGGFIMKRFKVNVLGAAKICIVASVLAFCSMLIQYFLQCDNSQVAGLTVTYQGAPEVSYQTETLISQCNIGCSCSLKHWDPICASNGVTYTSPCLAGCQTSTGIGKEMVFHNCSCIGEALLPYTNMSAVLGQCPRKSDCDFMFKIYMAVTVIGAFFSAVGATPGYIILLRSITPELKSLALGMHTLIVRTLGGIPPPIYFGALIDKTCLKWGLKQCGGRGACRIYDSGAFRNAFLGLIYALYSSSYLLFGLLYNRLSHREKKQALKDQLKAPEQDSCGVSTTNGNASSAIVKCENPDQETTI
In words: Oatp1d1 Transport Assay. Here is the method: (§1) In the inhibition experiments, the cells were preincubated for 20 s with test compounds, followed by a 5-min incubation with [3H]E3S (5 nM) or 30-min incubation with LY (5 μM).

Experiment [2] has as its target T2, Solute carrier organic anion transporter family member [3-691] (Zebrafish, UniProt A0A0R4IW35).
T2 construct: 3-691
T2 sequence (A0A0R4IW35 whole entry): T1 sequence (A0A8M9PU70 whole entry)
Nature of the experiment: Oatp1d1 Transport Assay. The protocol: as §1

SMILES strings stand for the structures.

In turn, `CCCN(CCC)S(=O)(=O)c1ccc(C(=O)O)cc1` gave an inhibition constant Ki in experiment [1] of 26 µM. That is a double-digit micromolar value.

For `CC[C@H]1OC(=O)[C@H](C)[C@@H](O[C@H]2C[C@@](C)(OC)[C@@H](O)[C@H](C)O2)[C@H](C)[C@@H](O[C@@H]2O[C@H](C)C[C@H](N(C)C)[C@H]2O)[C@](C)(O)C[C@@H](C)C(=O)[C@H](C)[C@@H](O)[C@]1(C)O`, in experiment [1], the Ki came to 882 µM. Against the preceding compound, the Ki is about 34-fold higher.

In the case of `C[C@H](CCC(=O)NCCS(=O)(=O)O)[C@H]1CC[C@H]2[C@@H]3[C@H](O)C[C@@H]4C[C@H](O)CC[C@]4(C)[C@H]3CC[C@]12C`, in experiment [1], the affinity, expressed as Ki, was 3.4 µM.

On to `CC(=O)[C@H]1CC[C@H]2[C@@H]3CCC4=CC(=O)CC[C@]4(C)[C@H]3CC[C@]12C`, for which the Ki in experiment [1] was determined as 9.06 µM.

`CCOC(=O)C(C)(C)Oc1ccc(Cl)cc1` [2-(4-Chlorophenoxy)-2-methylpropanoic acid ethyl ester] had an inhibition constant (Ki) in experiment [2] of 345 µM.

Regarding `CC(=O)C[C@H](c1ccccc1)c1c(O)c2ccccc2oc1=O` [2-hydroxy-3-(3-oxo-1-phenylbutyl)-4H-chromen-4-one], in experiment [1], the affinity corresponds to a Ki of 0.36 µM. This lies in the sub-micromolar range.

For `Cc1ccc(C)c(OCCCC(C)(C)C(=O)O)c1` [5-(2,5-dimethylphenoxy)-2,2-dimethylpentanoic acid], the Ki in experiment [1] turned out to be 7.44 µM.

As for `C[C@]12C[C@H](O)[C@H]3[C@@H](CCC4=CC(=O)CC[C@@]43C)[C@@H]1CC[C@@H]2C(=O)CO` [11beta,21-dihydroxypregn-4-ene-3,20-dione], the affinity in experiment [1] corresponds to a Ki of 105 µM.

Regarding `C[C@]12CC[C@@H]3c4ccc(O)cc4CC[C@H]3[C@@H]1CC[C@@H]2O[C@@H]1O[C@H](C(=O)O)[C@@H](O)[C@H](O)[C@H]1O` [17beta-Estradiol-17-(beta-D-glucuronide)], the affinity in experiment [1], expressed as Ki, was 3.26 µM.

As for `CC[C@H](C)C(=O)O[C@H]1C[C@H](O)C=C2C=C[C@H](C)[C@H](CC[C@@H](O)C[C@@H](O)CC(=O)O)[C@H]21` [(3R,5R)-7-[(1S,2S,6S,8S,8aR)-6-hydroxy-2-methyl-8-{[(2S)-2-methylbutanoyl]oxy}-1,2,6,7,8,8a-hexahydronaphthalen-1-yl]-3,5-dihydroxyheptanoic acid], the inhibition constant (Ki) in experiment [1] stood at 9.27 µM.

Turning to `C[C@]12CCC(=O)C=C1CC[C@@H]1[C@@H]2CC[C@]2(C)C(=O)CC[C@@H]12` [Androst-4-en-3,17-dione, 2], the affinity in experiment [1], expressed as Ki, was 3.78 µM. This Ki is about 2.5-fold lower than that of the compound before.

In experiment [1], `C=CC1=C(C)/C(=C/c2[nH]c(Cc3[nH]c(/C=C4\NC(=O)C(C)=C4C=C)c(C)c3CCC(=O)O)c(CCC(=O)O)c2C)NC1=O` [BILIRUBIN] yielded a Ki of 14.5 µM.

`O=C1OC(c2ccc(O)c(S(=O)(=O)O)c2)(c2ccc(O)c(S(=O)(=O)O)c2)c2c(Br)c(Br)c(Br)c(Br)c21` [BROMOSULFOPHTHALEIN]: in experiment [1], the affinity corresponds to a Ki of 2.99 µM.

In experiment [1], `CC(C)(Oc1ccc(CCNC(=O)c2ccc(Cl)cc2)cc1)C(=O)O` [Cedur] gave a Ki of 40.4 µM.

On to `C[C@H](CCC(=O)O)[C@H]1CC[C@H]2[C@@H]3[C@H](O)C[C@@H]4C[C@H](O)CC[C@]4(C)[C@H]3C[C@H](O)[C@]12C` [Cholic Acid], for which, in experiment [1], affinity was put at a Ki of 141 µM.

With `C[C@]12CCC(=O)C[C@@H]1CC[C@@H]1[C@@H]2CC[C@]2(C)[C@@H](O)CC[C@@H]12` [DHT], in experiment [1], the affinity, expressed as Ki, was 23.4 µM.

In turn, `CCCCC[C@H](O)/C=C/[C@H]1[C@H](O)CC(=O)[C@@H]1C/C=C\CCCC(=O)O` [DINOPROSTONE] showed an inhibitory constant (Ki) in experiment [1] of 227 µM. Compared with the last compound, the Ki is about 9.7-fold higher.

`C[C@H](CCC(=O)O)[C@H]1CC[C@H]2[C@@H]3CC[C@@H]4C[C@H](O)CC[C@]4(C)[C@H]3C[C@H](O)[C@]12C` [Deoxycholic Acid] had a Ki in experiment [1] of 9.94 µM.

Compound `C[C@]12CC[C@@H]3c4ccc(OS(=O)(=O)O)cc4CC[C@H]3[C@@H]1CCC2=O` [Estrone Sulphate] registered a Ki in experiment [1] of 1.01 µM.

Regarding `CC(C)OC(=O)C(C)(C)Oc1ccc(C(=O)c2ccc(Cl)cc2)cc1` [Finofibrate], the affinity in experiment [1], expressed as Ki, was 54.4 µM. Compared with the last compound, the Ki is about 54-fold higher.

`CN(Cc1cnc2nc(N)nc(N)c2n1)c1ccc(C(=O)N[C@@H](CCC(=O)O)C(=O)O)cc1` [MTX]: the Ki in experiment [1] was determined as 222 µM.

On to `CO[C@H]1/C=C/O[C@@]2(C)Oc3c(C)c(O)c4c(c3C2=O)C(=O)/C(=C/NN2CCN(C)CC2)C(=C4O)NC(=O)/C(C)=C\C=C\[C@H](C)[C@H](O)[C@@H](C)[C@@H](O)[C@@H](C)[C@H](OC(C)=O)[C@@H]1C` [Rifampicin], for which, in experiment [1], the Ki turned out to be 12.7 µM.

The compound `C[C@]12CC[C@H]3[C@@H](CCC4=CC(=O)CC[C@@]43C)[C@@H]1CC[C@@H]2O` [Testosterone, 1] returned an inhibition constant Ki in experiment [1] of 30 µM.

Compound `C[C@]12CC[C@@H]3c4ccc(O)cc4CC[C@H]3[C@@H]1CC[C@@H]2O` [[2,4,6,7-3H]-17beta-estradiol] yielded an inhibition constant Ki in experiment [1] of 2.83 µM.

The compound `C[C@]12CCC(=O)C=C1CC[C@@H]1[C@@H]2[C@@H](O)C[C@@]2(C)[C@H]1CC[C@]2(O)C(=O)CO` [[3H]cortisol] registered a Ki in experiment [1] of 120 µM. This Ki is about 42-fold higher than that of the compound before.

Compound `N[C@@H](Cc1cc(I)c(Oc2ccc(O)c(I)c2)c(I)c1)C(=O)O` [triothyrone] registered an inhibition constant Ki in experiment [1] of 42.7 µM.

Source of the values: BindingDB's records for doi:10.1074/jbc.M113.518506 (Rudjer Boskovic Institute, 2013).
